Results published in patent US20210214401A1, “MANUFACTURING METHOD OF NANODISC COMPRISING AN OLFACTORY RECEPTOR PROTEIN AND NANODISC COMPRISING AN OLFACTORY RECEPTOR PROTEIN MANUFACTURED BY THE SAME” (SEOUL NATIONAL UNIVERSITY R&DB FOUNDATION, priority 2017, published 2021).

Experiments:
TAAR13c = molecular target: T1, TAAR13c (Danio rerio, UniProt Q5QNP2); experiment: Dual-Glo Luciferase assay, TAAR13c-expressing HEK-293 cells; format: cell-based, zebrafish (Danio rerio)
T1 construct: expressed in transfected cells; host or cells: HEK-293
T1 sequence (Q5QNP2 1-341): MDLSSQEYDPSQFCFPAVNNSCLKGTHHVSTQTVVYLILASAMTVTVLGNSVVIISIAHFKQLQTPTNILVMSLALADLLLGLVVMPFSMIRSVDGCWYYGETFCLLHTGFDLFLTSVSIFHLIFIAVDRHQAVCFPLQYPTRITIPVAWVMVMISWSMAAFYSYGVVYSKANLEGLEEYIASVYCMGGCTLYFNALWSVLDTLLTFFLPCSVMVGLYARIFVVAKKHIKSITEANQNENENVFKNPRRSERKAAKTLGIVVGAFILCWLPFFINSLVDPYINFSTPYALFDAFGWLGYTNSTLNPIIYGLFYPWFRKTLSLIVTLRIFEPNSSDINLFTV
Description: Human embryonic kidney (HEK)-293 cells were cultured in Dulbecco's Modified Eagles Medium (DMEM) (HyClone, USA) containing 1% penicillin, 1% streptomycin (Gibco, USA) and 10% Fetal Bovine Serum (FBS)(Gibco, USA), under the conditions of 37° C. and 5% C02. Transfection was performed by the following method using Lipofectamine® 3000. Specifically, the cells were transfected with a DNA mixture containing TAAR13c, pCRE-Luc, pSV40-RL, Gαolf, and Receptor-transporting protein 1 short (RTP1S) using Lipofectamine® 3000. The characteristics against cadaverine were confirmed using the TAAR13c produced in Example 4 by the Dual-Glo Luciferase assay system. Specifically, the transfected cells were cultured in DMEM medium (50 μL) for 30 minutes, and an odorant (25 μL) designed to the desired concentration was added thereto, and cultured for 4 hours. Then, the Dual-Glo Luciferase reagent (20 μL) was added thereto, cultured at room temperature for 10 minutes, and the firefly luciferase luminescence was measured using the luminescence plate reader. Then, the Dual-Glo Stop-n-Glo reagent (20 μL) was added to the measured sample, and the mixture was cultured at room temperature for 10 minutes, and the Renilla luciferase luminescence was measured. The measured data was analyzed using the following formula. […]

[1] = system: HEK-293 cells transfected with a random vector (MocK); experiment: Dual-Glo Luciferase assay, cells transfected with a random vector (MocK); format: cell-based, Human; conditions: Comparative Example, FIG. 5
[2] = molecular target: T2, TAAR13c-embedded nanodiscs (T13NDs) (Danio rerio, UniProt Q5QNP2); experiment: Real-time intrinsic tryptophan fluorescence of T13ND; format: binding, zebrafish (Danio rerio); conditions: excitation 290 nm; emission 340 nm; FIG. 11
T2 construct: His tag (from pET-DEST42) (C); made in house; host or cells: E. coli BL21 (DE3)
T2 sequence (Q5QNP2 1-341): T1 sequence (Q5QNP2 1-341)
Description: The intrinsic fluorescence of T13NDs was measured real time using the LS 55 luminescence spectrometer (Perkin Elmer, USA) (excitation 290 nm; emission 340 nm). The real-time measurement of intrinsic fluorescence of TAAR13c was measured at various amine concentrations of 1 mM to 10 mM.

NCCCCCN [CV, cadaverine]
selectivity of TAAR13c response among various amines (cell-based) (TAAR13c; FIG. 6): showed a response only against CV
response of TAAR13c-expressing cells to CV (normalised CRE/Renilla luciferase) (TAAR13c; concentration-dependent treatment of CV, 4 hours, FIG. 5): significant response
response of Mock-transfected cells to CV (normalised CRE/Renilla luciferase) [1]: did not show any significant response
real-time tryptophan fluorescence of T13ND with increasing concentration of CV [2]: T13ND has an affinity for CV
